In PMC4503722, “Novel Phenotypic Outcomes Identified for a Public Collection of Approved Drugs from a Publicly Accessible Panel of Assays” (PLoS ONE, 2015):
Read-outs that look alike come from different tables or passages of the source.

Assays:
[1] = system: HCT116; experiment: cells; format: cell-based; details: for IC50: read-out: Basal_Viability ATP HCT116 summarized IC50
[2] = system: Colo320; experiment: cells; format: cell-based; details: for IC50: read-out: Basal_Viability ATP Colo 320 summarized IC50
[3] = system: HeLa cells; experiment: cells; format: cell-based;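 on Hela CellCycMod PI 4N summarized IC50: value tracks stimulation of 4N DNA content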
[4] = system: SW480; experiment: cells; format: cell-based; details: for IC50: read-out: Basal_Viability ATP SW480 summarized IC50
[5] = system: DLD-1; experiment: cells; format: cell-based; details: for IC50: read-out: Basal_Viability ATP DLD-1 summarized IC50
[6] = system: RKO; experiment: cells; format: cell-based; details: for IC50: read-out: Basal_Viability ATP RKO summarized IC50
[7] = system: SNU-C1; experiment: cells; format: cell-based; details: for IC50: read-out: Basal_Viability ATP SNU-C1 summarized IC50
[8] = system: HT-29; experiment: cells; format: cell-based; details: for IC50: read-out: Basal_Viability ATP HT-29 summarized IC50
[9] = system: ECFC/ADSC co-culture cell nuclei number; details: for IC50: read-out: VEGF_ADSC\ECFC Angio Hoechst NucArea summarized IC50
[10] = system: endothelial tube formation in co-cultures of ECFCs and ADSCs treated with VEGF; experiment: cells; format: cell-based, human; details: for IC50: read-out: VEGF_ADSC\ECFC Angio CD31 TubeArea summarized IC50
[11] = assay number 14, 2N, read-out: Hela CellCycMod PI 2N summarized IC50
[12] = assay number 15, S phase, read-out: Hela CellCycMod PI S Phase summarized IC50
[13] = assay number 16, 4N, read-out: Hela CellCycMod PI 4N summarized IC50
[14] = assay number 17, MI, read-out: Hela CellCycMod PI MI summarized IC50
[15] = assay number 18, cell number, read-out: Hela CellCycMod PI Cell Number summarized IC50

Fc1ccc(C(OCCN2CCN(CCCc3ccccc3)CC2)c2ccc(F)cc2)cc1 [NCGC00015300-10]
IC50/EC50, Basal_Viability ATP HCT116 (assay number 25) ([1]; basal): 4.8718 µM
IC50/EC50, Basal_Viability ATP Colo 320 (assay number 27) ([2]; basal): > 20 µM
IC50/EC50, Hela CellCycMod PI 2N (assay number 14) ([3]; 2N): > 10 µM
IC50/EC50, Hela CellCycMod PI 4N (assay number 16) ([3]; 4N): > 10 µM
IC50/EC50, Hela CellCycMod PI Cell Number (assay number 18) ([3]; Cell Number): 3.2 µM
IC50/EC50, Hela CellCycMod PI MI (assay number 17) ([3]; MI): > 10 µM
IC50/EC50, Hela CellCycMod PI S Phase (assay number 15) ([3]; S Phase): > 10 µM
IC50/EC50, Basal_Viability ATP SW480 (assay number 24) ([4]; basal): 2.068 µM
IC50/EC50, Basal_Viability ATP DLD-1 (assay number 23) ([5]; basal): 0.9032 µM
IC50/EC50, Basal_Viability ATP RKO (assay number 29) ([6]; basal): 0.113 µM
IC50/EC50, Basal_Viability ATP SNU-C1 (assay number 30) ([7]; basal): 1.817 µM
IC50/EC50, Basal_Viability ATP HT-29 (assay number 28) ([8]; basal): 1.4851 µM

O=c1[nH]cc(F)c(=O)[nH]1 [NCGC00015442-15]
IC50 ([2]; assay number 27, basal): > 20000 nM
IC50 [3, 11]: > 10 µM
IC50 [3, 12]: > 10 µM
IC50 [3, 13]: > 10 µM
IC50 [3, 14]: > 10 µM
IC50 [3, 15]: > 10 µM
IC50 ([4]; assay number 24, basal): > 20000 nM
IC50 [9]: > 10 µM
IC50 ([5]; assay number 23, basal): > 20000 nM
IC50 ([6]; assay number 29, basal): > 20000 nM
IC50 [10]: > 10000 nM
IC50 ([7]; assay number 30, basal): > 20000 nM
IC50 ([8]; assay number 28, basal): > 20 µM

CS(=O)(=O)O.Cc1ccc2c(c1)c1c3n2CCNC3CCC1 (stereo not shown) [NCGC00024749-04]
Basal_Viability ATP HCT116 IC50/EC50 ([1]; assay number 25, basal): > 20 µM
Basal_Viability ATP Colo 320 IC50/EC50 ([2]; assay number 27): > 20 µM
Hela CellCycMod PI 2N IC50/EC50 ([3]; assay number 14, 2N): > 10 µM
Hela CellCycMod PI S Phase IC50/EC50 ([3]; assay number 15, S phase): > 10 µM
Hela CellCycMod PI 4N IC50/EC50 ([3]; assay number 16, 4N): > 10 µM
Hela CellCycMod PI MI IC50/EC50 ([3]; assay number 17, MI): > 10 µM
Hela CellCycMod PI Cell Number IC50/EC50 ([3]; assay number 18, cell number): > 10 µM
Basal_Viability ATP SW480 IC50/EC50 ([4]; assay number 24): > 20 µM
Basal_Viability ATP DLD-1 IC50/EC50 ([5]; assay number 23): > 20 µM
Basal_Viability ATP RKO IC50/EC50 ([6]; assay number 29): > 20 µM
Basal_Viability ATP SNU-C1 IC50/EC50 ([7]; assay number 30): 2.4763 µM
Basal_Viability ATP HT-29 IC50/EC50 ([8]; assay number 28): > 20 µM

Nc1ncn([C@@H]2O[C@H](CO)[C@@H](O)[C@H]2O)c(=O)n1 [NCGC00090851-10]
Basal_Viability ATP HCT116 IC50/EC50 ([1]; assay number 25, basal): 3.0364 µM
Basal_Viability ATP Colo 320 IC50/EC50 ([2]; assay number 27): 12.3406 µM
Basal_Viability ATP SW480 IC50/EC50 ([4]; assay number 24): > 6.6667 µM
VEGF_ADSC\ECFC Angio Hoechst NucArea IC50/EC50 [9]: > 10 µM
Basal_Viability ATP DLD-1 IC50/EC50 ([5]; assay number 23): 2.5502 µM
Basal_Viability ATP RKO IC50/EC50 ([6]; assay number 29): 7.4004 µM
VEGF_ADSC\ECFC Angio CD31 TubeArea IC50/EC50 [10]: > 10 µM
Basal_Viability ATP SNU-C1 IC50/EC50 ([7]; assay number 30): 1.8027 µM
Basal_Viability ATP HT-29 IC50/EC50 ([8]; assay number 28): 12.5329 µM

CC(=O)[O][Hg][c]1ccccc1 [NCGC00091050-09]
IC50 ([1]; assay number 25, basal): 2800 nM
IC50 ([2]; assay number 27, basal): 1300 nM
IC50 ([4]; assay number 24, basal): 543 nM
IC50 [9]: 0.883 µM
IC50 ([5]; assay number 23, basal): 736 nM
IC50 ([6]; assay number 29, basal): 1200 nM
IC50 [10]: 530 nM
IC50 ([7]; assay number 30, basal): 192 nM
IC50 ([8]; assay number 28, basal): 0.799 µM

CN(C)c1ccc(C(=C2C=CC(=[N+](C)C)C=C2)c2ccc(N(C)C)cc2)cc1 [NCGC00091112-09]
IC50 ([1]; assay number 25, basal): 514 nM
IC50 ([2]; assay number 27, basal): 2050 nM
IC50 ([4]; assay number 24, basal): 528 nM
IC50 [9]: 1.83 µM
IC50 ([5]; assay number 23, basal): 471 nM
IC50 ([6]; assay number 29, basal): 994 nM
IC50 [10]: 186 nM
IC50 ([7]; assay number 30, basal): 394 nM
IC50 ([8]; assay number 28, basal): 0.467 µM

Oc1ccc(Cl)cc1Cc1cc(Cl)ccc1O [NCGC00091325-09]
IC50 [1]: 1550 nM
IC50 [2]: 1210 nM
IC50 [4]: 2500 nM
IC50 [9]: 6 µM
IC50 [5]: 862 nM
IC50 [6]: 1930 nM
IC50 [10]: 2320 nM
IC50 [7]: 546 nM
IC50 [8]: 4.69 µM

CC[n+]1c(-c2ccccc2)c2cc(N)ccc2c2ccc(N)cc21 [NCGC00091387-08]
IC50 ([1]; assay number 25, basal): 4440 nM
IC50 ([2]; assay number 27, basal): > 20000 nM
IC50 [3, 11]: > 10 µM
IC50 [3, 12]: > 10 µM
IC50 [3, 13]: > 10 µM
IC50 [3, 14]: > 10 µM
IC50 [3, 15]: > 10 µM
IC50 ([4]; assay number 24, basal): > 20000 nM
IC50 ([5]; assay number 23, basal): > 20000 nM
IC50 ([6]; assay number 29, basal): 3350 nM
IC50 ([7]; assay number 30, basal): > 20000 nM
IC50 ([8]; assay number 28, basal): > 20 µM

Cc1c(C)c2c(c(C)c1O)CC[C@@](C)(CCC[C@H](C)CCC[C@H](C)CCCC(C)C)O2 [NCGC00142625-10]
IC50 ([1]; assay number 25, basal): > 20000 nM
IC50 ([2]; assay number 27, basal): > 20000 nM
IC50 ([4]; assay number 24, basal): > 20000 nM
IC50 [9]: > 10 µM
IC50 ([5]; assay number 23, basal): > 20000 nM
IC50 ([6]; assay number 29, basal): 2610 nM
IC50 [10]: > 10000 nM
IC50 ([7]; assay number 30, basal): > 20000 nM
IC50 ([8]; assay number 28, basal): > 20 µM
